Data reported in ChEMBL document CHEMBL1126469, “On the significance of the C-terminal primary amide in cholecystokinin” (Bioorg Med Chem Lett, 1993).

Key:
[1] = biological target: T1, Gastrin/cholecystokinin type B receptor (Rattus norvegicus, UniProt P30553); experiment: In vitro binding affinity against Cholecystokinin type B receptor of rat pancreatic acini
T1 sequence (P30553 whole entry): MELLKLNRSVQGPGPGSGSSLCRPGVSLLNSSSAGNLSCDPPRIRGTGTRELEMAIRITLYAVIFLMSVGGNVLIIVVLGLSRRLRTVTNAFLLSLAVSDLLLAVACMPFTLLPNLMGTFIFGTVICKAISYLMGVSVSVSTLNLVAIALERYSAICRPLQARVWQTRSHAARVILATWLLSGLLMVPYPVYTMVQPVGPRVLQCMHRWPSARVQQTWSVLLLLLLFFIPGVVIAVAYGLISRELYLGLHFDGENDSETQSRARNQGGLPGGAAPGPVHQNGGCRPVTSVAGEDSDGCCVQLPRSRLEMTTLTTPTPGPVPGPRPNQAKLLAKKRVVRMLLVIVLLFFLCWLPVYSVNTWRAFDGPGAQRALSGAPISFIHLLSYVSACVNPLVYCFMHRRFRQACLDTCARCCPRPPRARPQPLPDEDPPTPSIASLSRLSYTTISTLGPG

Rattus norvegicus [2] = species: Rattus norvegicus; experiment: Antagonist activity against amylase secretion from rat pancreatic acini; format: functional, organism-based
Rattus norvegicus [3] = species: Rattus norvegicus; experiment: The compound was tested for its ability to stimulate amylase secretion from rat pancreatic acini; format: functional, organism-based

SMILES	IC50 [1] [nM]	EC50 (Rattus norvegicus [3]; Rattus norvegicus) [nM]	also measured
CCCC[C@H](NC(=O)[C@H](Cc1ccc(OS(=O)(=O)O)cc1)NC(=O)OC(C)(C)C)C(=O)NCC(=O)N[C@H](Cc1c[nH]c2ccccc12)C(=O)N[C@@H](CCCC)C(=O)N[C@@H](CC(=O)O)C(=O)NCCc1ccccc1	500	–	IC50 (Rattus norvegicus [2]): 30000 nM
CCCC[C@H](NC(=O)[C@H](Cc1ccc(OS(=O)(=O)O)cc1)NC(=O)OC(C)(C)C)C(=O)NCC(=O)N[C@H](Cc1c[nH]c2ccccc12)C(=O)N[C@@H](CCCC)C(=O)N[C@@H](CC(=O)O)C(=O)NCC(c1ccccc1)c1ccccc1	–	9300	–
CCCC[C@H](NC(=O)[C@H](Cc1ccc(OS(=O)(=O)O)cc1)NC(=O)OC(C)(C)C)C(=O)NCC(=O)N[C@H](Cc1c[nH]c2ccccc12)C(=O)N[C@@H](CCCC)C(=O)N[C@@H](CC(=O)O)C(=O)N(C)CCc1ccccc1	–	–	IC50 (Rattus norvegicus [2]): 26000 nM
CCCC[C@H](NC(=O)[C@H](Cc1ccc(OS(=O)(=O)O)cc1)NC(=O)OC(C)(C)C)C(=O)NCC(=O)N[C@H](Cc1c[nH]c2ccccc12)C(=O)N[C@@H](CCCC)C(=O)N[C@@H](CC(=O)O)C(=O)NC(Cc1ccccc1)Cc1ccccc1	–	86000	–

Further lines, with some results ahead:

IC50 [1] [nM]	EC50 (Rattus norvegicus [3]; Rattus norvegicus) [nM]	SMILES	also measured
–	32	CCCC[C@H](NC(=O)[C@H](Cc1ccc(OS(=O)(=O)O)cc1)NC(=O)OC(C)(C)C)C(=O)NCC(=O)N[C@@H](Cc1c[nH]c2ccccc12)C(=O)N[C@@H](CCCC)C(=O)N[C@@H](CC(=O)O)C(=O)NCC(c1ccccc1)c1ccccc1	–
100	–	CCCC[C@H](NC(=O)[C@H](Cc1ccc(OS(=O)(=O)O)cc1)NC(=O)OC(C)(C)C)C(=O)NCC(=O)N[C@@H](Cc1c[nH]c2ccccc12)C(=O)N[C@@H](CCCC)C(=O)N[C@@H](CC(=O)O)C(=O)NCCc1ccccc1	EC50 (Rattus norvegicus [3]): 30 nM
–	700	CCCC[C@H](NC(=O)[C@H](Cc1ccc(OS(=O)(=O)O)cc1)NC(=O)OC(C)(C)C)C(=O)NCC(=O)N[C@@H](Cc1c[nH]c2ccccc12)C(=O)N[C@@H](CCCC)C(=O)N[C@@H](CC(=O)O)C(=O)NC(Cc1ccccc1)Cc1ccccc1	–
48	–	CCCC[C@H](NC(=O)C(Cc1c[nH]c2ccccc12)NC(=O)CNC(=O)[C@H](CCCC)NC(=O)[C@H](Cc1ccc(OS(=O)(=O)O)cc1)NC(=O)OC(C)(C)C)C(=O)N[C@@H](CC(=O)O)C(=O)NCCc1ccccc1 (single isomer, unassigned)	EC50 (Rattus norvegicus [3]): 70 nM
